Source: patent US20240383845A1, “NAPHTHALENEDITHIOL AND DERIVATIVE THEREOF, AND PRODUCTION PROCESS AND USE FOR THE SAME” (SUGAI CHEMICAL INDUSTRY CO., LTD., priority 2021, published 2024)

Experiments:
[1] = Refractive index (abbe refractometer); format: physicochemical
Description: The refractive index of each sample was measured using an abbe refractometer (“NAR-lT” manufactured by ATAGO CO., LTD.) at a temperature of 25° C. and a wavelength of 589 nm. Depending on the species of each sample, the refractive index was measured as follows.
For the after-mentioned 16NDSH, 15NDSH, 26NDSH and 27NDSH; 15DGNDSH; 15DHENDSH; 16DMNDSH and 15DMNDSH; and 16DCNDSH and 15DCNDSH, a sample was dissolved in 1,3-dimethyl-2-imidazolidinone (DMI) to prepare multiple solutions with different concentrations, and the refractive index of each solution was measured at a temperature of 25° C. and a wavelength of 589 nm. From the results of the refractive index at each concentration, the refractive index value at 100% by mass of the concentration was determined by extrapolation.
For the after-mentioned 16NDSHMA, 15NDSHMA, 26NDSHMA and 27NDSHMA; 16NDSHA and 15NDSHA; 15DANDSH; and 15DVNDSH, polymerization may occur during the mixing, and thus a sample was dissolved in a methoquinone/DMI solution (a solution containing 4000 ppm of methoquinone relative to the mass of DMI) to prepare multiple solutions with different concentrations. The refractive index of each solution was measured at a temperature of 25° C. and a wavelength of 589 nm. From the results of the refractive index at each concentration, the refractive index value at 100% by mass of the concentration was determined by extrapolation.
For the after-mentioned 16DANDSH; 16DVNDSH; 16DGNDSH; and 16DHENDSH, a sample was liquid for a while after preparation, and thus the refractive index was measured in the state of an undiluted solution. Further, thiol-ene-based resins (thiol-ene-based resins obtained from 16NDSH or 15NDSH and divinylbenzene) were measured in the same manner. […]

[2] = Dissolubility or compatibility (maximum dissolved concentration, HPLC); format: physicochemical; conditions: for Dissolubility, Ethyl acetate / Dissolubility, MMA / Dissolubility, PGMEA / Dissolubility, Styrene / Dissolubility, Toluene / Dissolubility, DMF / Dissolubility, THF / Dissolubility, Methanol: 25° C.; for Dissolubility, MMA: methyl methacrylate; for Dissolubility, PGMEA: propylene glycol monomethyl ether acetate; for Dissolubility, DMF: N,N-dimethylformamide; for Dissolubility, THF: tetrahydrofuran
Description: In more detail, the sample was added to a predetermined amount of a solvent or a polymerizable component until the sample was no longer dissolved, and the sample content of the liquid layer (the solvent layer) of the resulting mixture was analyzed using an HPLC (“SPD-20A” manufactured by SHIMADZU CORPORATION), and thus the concentration (the maximum dissolved concentration) of the sample in the liquid layer (the solvent layer) was determined as a solubility.

[3] = stated for the raw material used, method not stated
[4] = 25° C., 589 nm, methoquinone/DMI solutions, value at 100% by mass by extrapolation
[5] = 25° C., 589 nm, DMI solutions of different concentrations, value at 100% by mass by extrapolation
[6] = 25° C., 589 nm, measured as undiluted liquid (also thiol-ene-based resins)

SMILES | Refractive index [1, 3] | Refractive index [1, 4] | Dissolubility, Ethyl acetate [2] | Dissolubility, MMA [2] | Dissolubility, PGMEA [2] | Dissolubility, Styrene [2] | Dissolubility, Toluene [2] | melting point [°C] | Refractive index [1, 5] | Dissolubility, DMF [2] [% by mass] | Dissolubility, THF [2] [% by mass] | saturation solubility ([2]; in PMMA resin composition) | Dissolubility, Methanol [2] [% by mass] | saturation solubility ([2]; in 55% divinylbenzene (isomer mixture)) | saturation solubility ([2]; in curable composition with bisphenol A-type liquid epoxy resin) | saturation solubility ([2]; in styrene (curable resin)) | Refractive index [1, 6]
CCc1nc(C)c[nH]1 [2-ethyl-4-methylimidazole] | 1.499 |  |  |  |  |  |  |  |  |  |  |  |  |  |  |  | 
C=CCSc1cccc2c(SCC=C)cccc12 [Example 15DANDSH, 1,5-bis(allylthio)naphthalene] |  | 1.653 | 16.4 % by mass | 26.6 % by mass | 13.7 % by mass | 10.6 % by mass | 26.1 % by mass | 78 to 79 |  |  |  |  |  |  |  |  | 
O=C(O)CSc1cccc2c(SCC(=O)O)cccc12 [Example 15DCNDSH, 1,5-bis(carboxymethylthio)naphthalene] |  |  | 0.03 % by mass | < 0.01 % by mass | 0.02 % by mass |  |  |  | 1.657 | 10.1 | 0.67 |  |  |  |  |  | 
c1cc(SCC2CO2)c2cccc(SCC3CO3)c2c1 (stereo not shown) [Example 15DGNDSH, 1,5-bis(glycidylthio)naphthalene] |  |  | 51.9 % by mass | 60.9 % by mass | 62.3 % by mass | 43.6 % by mass | 56.8 % by mass | 50 to 53 | 1.621 |  |  |  |  |  |  |  | 
OCCSc1cccc2c(SCCO)cccc12 [Example 15DHENDSH, 1,5-bis(2-hydroxyethylthio)naphthalene] |  |  | 3.01 % by mass | 34.7 % by mass | 3.60 % by mass | 0.35 % by mass | 0.19 % by mass | 84 to 86 | 1.668 |  |  |  |  |  |  |  | 
CSc1cccc2c(SC)cccc12 [Example 15DMNDSH, 1,5-bis(methylthio)naphthalene] |  |  | 1.25 % by mass | 1.44 % by mass | 1.25 % by mass | 3.13 % by mass | 2.36 % by mass | 149 to 151 | 1.690 |  |  | about 10 % by mass |  |  |  |  | 
C=CSc1cccc2c(SC=C)cccc12 [Example 15DVNDSH, 1,5-bis(vinylthio)naphthalene] |  | 1.685 | 39.0 % by mass | 43.6 % by mass | 26.3 % by mass | 45.8 % by mass | 59.6 % by mass | 50 to 52 |  |  |  |  |  |  |  |  | 
Sc1cccc2c(S)cccc12 [Example 15NDSH, 1,5-naphthalenedithiol] |  |  | 7.05 % by mass |  | 7.44 % by mass |  | 7.26 % by mass |  | 1.711 | 34.4 | 29.0 |  | 1.08 | about 5 % by mass | about 0.1 % by mass |  | 
C=CC(=O)Sc1cccc2c(SC(=O)C=C)cccc12 [Example 15NDSHA, 1,5-bis(acryloylthio)naphthalene] |  | 1.646 | 1.57 % by mass | 1.93 % by mass | 1.50 % by mass | 4.24 % by mass | 2.61 % by mass | 156 to 158 |  |  |  |  |  |  |  |  | 
C=C(C)C(=O)Sc1cccc2c(SC(=O)C(=C)C)cccc12 [Example 15NDSHMA, 1,5-bis(methacryloylthio)naphthalene] |  | 1.638 | 4.36 % by mass | 5.22 % by mass | 3.34 % by mass | 10.4 % by mass | 6.73 % by mass |  |  | 13.2 | 18.7 |  | 0.36 |  |  | about 10 % by mass | 
C=CCSc1ccc2c(SCC=C)cccc2c1 [Example 16DANDSH, 1,6-bis(allylthio)naphthalene] |  |  | Freely blended (>90) % by mass | Freely blended (>90) % by mass | Freely blended (>90) % by mass | Freely blended (>90) % by mass | Freely blended (>90) % by mass |  |  |  |  |  |  |  |  |  | 1.667
O=C(O)CSc1ccc2c(SCC(=O)O)cccc2c1 [Example 16DCNDSH, 1,6-bis(carboxymethylthio)naphthalene] |  |  | 0.56 % by mass | 0.14 % by mass | 0.98 % by mass |  |  | 176 to 178 | 1.663 | 61.0 | 30.5 |  |  |  |  |  | 
c1cc(SCC2CO2)c2ccc(SCC3CO3)cc2c1 (stereo not shown) [Example 16DGNDSH, 1,6-bis(glycidylthio)naphthalene] |  |  | Freely blended (>90) % by mass | Freely blended (>90) % by mass | Freely blended (>90) % by mass | Freely blended (>90) % by mass | Freely blended (>90) % by mass |  |  |  |  |  |  |  |  |  | 1.665
OCCSc1ccc2c(SCCO)cccc2c1 [Example 16DHENDSH, 1,6-bis(2-hydroxyethylthio)naphthalene] |  |  | Freely blended (>90) % by mass | Freely blended (>90) % by mass | Freely blended (>90) % by mass | 2.87 % by mass | 1.69 % by mass |  |  |  |  |  |  |  |  |  | 1.672
C=CSc1ccc2c(SC=C)cccc2c1 [Example 16DVNDSH, 1,6-bis(vinylthio)naphthalene] |  |  | Freely blended (>90) % by mass | Freely blended (>90) % by mass | Freely blended (>90) % by mass | Freely blended (>90) % by mass | Freely blended (>90) % by mass |  |  |  |  |  |  |  |  |  | 1.699
Sc1ccc2c(S)cccc2c1 [Example 16NDSH, 1,6-naphthalenedithiol] |  |  |  |  |  |  |  |  | 1.722 |  |  |  | 19.3 |  |  |  | 
C=C(C)C(=O)Sc1ccc2c(SC(=O)C(=C)C)cccc2c1 [Example 16NDSHMA, 1,6-bis(methacryloylthio)naphthalene] |  | 1.647 | 44.6 % by mass | 44.1 % by mass | 31.1 % by mass | 51.1 % by mass | 50.7 % by mass |  |  | 59.5 | 67.6 |  | 2.49 |  |  |  | 
C=C(C)C(=O)Sc1ccc2cc(SC(=O)C(=C)C)ccc2c1 [Example 26NDSHMA, 2,6-bis(methacryloylthio)naphthalene] |  | 1.651 | 1.08 % by mass | 2.42 % by mass | 1.46 % by mass | 5.00 % by mass | 3.73 % by mass |  |  | 4.59 | 9.59 |  | 0.13 |  |  |  | 
C=C(C)C(=O)Sc1ccc2ccc(SC(=O)C(=C)C)cc2c1 [Example 27NDSHMA, 2,7-bis(methacryloylthio)naphthalene] |  | 1.649 | 3.20 % by mass | 4.36 % by mass | 2.68 % by mass | 7.92 % by mass | 6.84 % by mass |  |  | 17.5 | 13.1 |  | 0.20 |  |  |  | 
C=Cc1ccccc1 [styrene] | 1.544 |  |  |  |  |  |  |  |  |  |  |  |  |  |  |  | 
